{"source": "the supplement of paper PMC10307832", "test_in_all_cases": "relative viability (nuclei count vs DMSO), 5 days (fraction); higher = more cells survive", "key": {"[1]": {"tested_on": "COR-L23", "how_it_was_run": "(§1)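 Dosing by pin tool came one day after lung cancer cell lines were seeded in 1536-well plates, using either one drug or a fixed anchor-drug dose plus five library-drug doses (not always all listed) in √10 steps. After 5 days, nuclei were counted on 4× images. Relative viability is treated-well nuclei count divided by vehicle-well nuclei count, and values are medians of duplicate plates.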"}, "[2]": {"tested_on": "ChaGo-K-1", "how_it_was_run": "as §1"}, "[3]": {"tested_on": "PC-14", "how_it_was_run": "as §1"}, "[4]": {"tested_on": "HOP-62", "how_it_was_run": "as §1"}, "[5]": {"tested_on": "H3255", "how_it_was_run": "as §1"}, "[6]": {"tested_on": "HARA", "how_it_was_run": "as §1"}, "[7]": {"tested_on": "NCI-H1437", "how_it_was_run": "as §1"}, "[8]": {"tested_on": "NCI-H441", "how_it_was_run": "as §1"}, "[9]": {"tested_on": "NCI-H2085", "how_it_was_run": "as §1"}, "[10]": {"tested_on": "NCI-H1666", "how_it_was_run": "as §1"}, "[11]": {"tested_on": "NCI-H661", "how_it_was_run": "as §1"}, "[12]": {"tested_on": "LXF-289", "conditions": "first compound 0.002 µM", "how_it_was_run": "as §1"}}, "data": [{"smiles": "CCNC(=O)c1noc(-c2cc(C(C)C)c(O)cc2O)c1-c1ccc(CN2CCOCC2)cc1", "note": "[Luminespib] + CS(=O)(=O)N1CCN(Cc2cc3nc(-c4cccc5[nH]ncc45)nc(N4CCOCC4)c3s2)CC1 [Pictilisib] (partner 1 µM)", "values": [{"measurement": "relative viability", "setting": "[1]; first compound 0.002 µM", "value": 0.856}, {"measurement": "relative viability", "setting": "[1]; first compound 0.006325 µM", "value": 0.633}, {"measurement": "relative viability", "setting": "[1]; first compound 0.02 µM", "value": 0.368}, {"measurement": "relative viability", "setting": "[1]; first compound 0.06325 µM", "value": 0.0587}, {"measurement": "relative viability", "setting": "[1]; first compound 0.2 µM", "value": 0.0601}, {"measurement": "relative viability", "setting": "[2]; first compound 0.002 µM", "value": 0.782}, {"measurement": "relative viability", "setting": "[2]; first compound 0.02 µM", "value": 0.501}, {"measurement": "relative viability", "setting": "[2]; first compound 0.06325 µM", "value": 0.345}, {"measurement": "relative viability", "setting": "[2]; first compound 0.2 µM", "value": 0.362}, {"measurement": "relative viability", "setting": "[3]; first compound 0.002 µM", "value": 0.698}, {"measurement": "relative viability", "setting": "[3]; first compound 0.006325 µM", "value": 0.588}, {"measurement": "relative viability", "setting": "[3]; first compound 0.02 µM", "value": 0.194}, {"measurement": "relative viability", "setting": "[3]; first compound 0.06325 µM", "value": 0.0484}, {"measurement": "relative viability", "setting": "[3]; first compound 0.2 µM", "value": 0.0383}, {"measurement": "relative viability", "setting": "[4]; first compound 0.002 µM", "value": 0.678}, {"measurement": "relative viability", "setting": "[4]; first compound 0.006325 µM", "value": 0.838}, {"measurement": "relative viability", "setting": "[4]; first compound 0.02 µM", "value": 0.43}, {"measurement": "relative viability", "setting": "[4]; first compound 0.06325 µM", "value": 0.164}, {"measurement": "relative viability", "setting": "[4]; first compound 0.2 µM", "value": 0.0784}, {"measurement": "relative viability", "setting": "[5]; first compound 0.002 µM", "value": 0.497}, {"measurement": "relative viability", "setting": "[5]; first compound 0.006325 µM", "value": 0.474}, {"measurement": "relative viability", "setting": "[5]; first compound 0.02 µM", "value": 0.31}, {"measurement": "relative viability", "setting": "[5]; first compound 0.06325 µM", "value": 0.327}, {"measurement": "relative viability", "setting": "[5]; first compound 0.2 µM", "value": 0.179}, {"measurement": "relative viability", "setting": "[6]; first compound 0.002 µM", "value": 0.295}, {"measurement": "relative viability", "setting": "[6]; first compound 0.006325 µM", "value": 0.396}, {"measurement": "relative viability", "setting": "[6]; first compound 0.02 µM", "value": 0.174}, {"measurement": "relative viability", "setting": "[6]; first compound 0.06325 µM", "value": 0.531}, {"measurement": "relative viability", "setting": "[6]; first compound 0.2 µM", "value": 0.0744}, {"measurement": "relative viability", "setting": "[7]; first compound 0.002 µM", "value": 0.343}, {"measurement": "relative viability", "setting": "[7]; first compound 0.006325 µM", "value": 0.495}, {"measurement": "relative viability", "setting": "[7]; first compound 0.02 µM", "value": 0.249}, {"measurement": "relative viability", "setting": "[7]; first compound 0.06325 µM", "value": 0.133}, {"measurement": "relative viability", "setting": "[7]; first compound 0.2 µM", "value": 0.0978}, {"measurement": "relative viability", "setting": "[8]; first compound 0.002 µM", "value": 0.479}, {"measurement": "relative viability", "setting": "[8]; first compound 0.006325 µM", "value": 0.513}, {"measurement": "relative viability", "setting": "[8]; first compound 0.02 µM", "value": 0.425}, {"measurement": "relative viability", "setting": "[8]; first compound 0.06325 µM", "value": 0.104}, {"measurement": "relative viability", "setting": "[8]; first compound 0.2 µM", "value": 0.0836}, {"measurement": "relative viability", "setting": "[9]; first compound 0.002 µM", "value": 0.448}, {"measurement": "relative viability", "setting": "[9]; first compound 0.006325 µM", "value": 0.511}, {"measurement": "relative viability", "setting": "[9]; first compound 0.02 µM", "value": 0.354}, {"measurement": "relative viability", "setting": "[9]; first compound 0.06325 µM", "value": 0.51}, {"measurement": "relative viability", "setting": "[9]; first compound 0.2 µM", "value": 0.28}, {"measurement": "relative viability", "setting": "[10]; first compound 0.002 µM", "value": 0.423}, {"measurement": "relative viability", "setting": "[10]; first compound 0.006325 µM", "value": 0.375}, {"measurement": "relative viability", "setting": "[10]; first compound 0.02 µM", "value": 0.315}, {"measurement": "relative viability", "setting": "[10]; first compound 0.06325 µM", "value": 0.235}, {"measurement": "relative viability", "setting": "[10]; first compound 0.2 µM", "value": 0.145}, {"measurement": "relative viability", "setting": "[11]; first compound 0.002 µM", "value": 0.357}, {"measurement": "relative viability", "setting": "[11]; first compound 0.006325 µM", "value": 0.344}, {"measurement": "relative viability", "setting": "[11]; first compound 0.02 µM", "value": 0.287}, {"measurement": "relative viability", "setting": "[11]; first compound 0.06325 µM", "value": 0.276}, {"measurement": "relative viability", "setting": "[11]; first compound 0.2 µM", "value": 0.223}, {"measurement": "relative viability", "setting": "[12]", "value": 0.75}]}]}
